Reference: ChEMBL document CHEMBL4765450, “The components and activities analysis of a novel anticoagulant candidate dHG-5” (Eur J Med Chem, 2020)
Active and inactive are the calls of the source. No cut-off for these calls is given here.

What was measured:
[1] = biological target: T1, Coagulation factor VII (Homo sapiens) (UniProt P08709); test: Inhibition of factor 7a (unknown origin) at IC50 using pefachrome factor VIIa as substrate preincubated for 1 min followed by chromogenic substrate addition and measured for 2 mins in presence of AT-III; settings: time 3.0 min
T1 sequence (whole entry): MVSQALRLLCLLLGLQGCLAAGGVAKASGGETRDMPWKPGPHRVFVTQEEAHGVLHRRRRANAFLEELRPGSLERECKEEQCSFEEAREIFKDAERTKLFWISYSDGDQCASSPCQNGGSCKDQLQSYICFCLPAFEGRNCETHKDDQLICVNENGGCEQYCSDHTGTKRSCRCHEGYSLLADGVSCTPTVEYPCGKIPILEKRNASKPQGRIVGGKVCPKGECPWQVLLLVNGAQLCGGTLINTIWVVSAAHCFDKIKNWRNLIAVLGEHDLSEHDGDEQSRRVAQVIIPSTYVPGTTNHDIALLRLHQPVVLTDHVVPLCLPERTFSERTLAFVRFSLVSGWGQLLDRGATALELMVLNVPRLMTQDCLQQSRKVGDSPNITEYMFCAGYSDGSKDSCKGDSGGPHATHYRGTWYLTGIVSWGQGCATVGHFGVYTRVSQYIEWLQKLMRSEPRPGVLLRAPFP

[2] = biological target: Coagulation factor XI (Homo sapiens) (UniProt P03951); test: Inhibition of factor 11a (unknown origin) at IC50 using S-2366 as substrate preincubated for 1 min followed by chromogenic substrate addition and measured for 2 mins; settings: time 3.0 min
[3] = biological target: T2, Coagulation factor IX/VIII (Homo sapiens) (UniProt P00740+P00451); test: Inhibition of human citrated plasma iXase (factor 8a-factor 9a complex) assessed as activity potency of oligosaccharides multiplied by the percentage of oligosaccharides in dHG-5 preincubated for 2 mins followed by factor 10 addition and measured after 1 min by FXa chromogenic substrate SXa-11 based assay relative to dHG-5; type: protein-complex assay; settings: time 3.0 min
Plasma [4] = test: Anticoagulation activity in human plasma assessed as drug level causing 20 times doubling of APTT by measuring activity potency of oligosaccharides multiplied by the percentage of oligosaccharides in dHG-5 preincubated for 2 mins followed by APTT reagent and measured after 3 mins by coagulometric method relative to dHG-5; type: functional; settings: time 5 min
Rattus norvegicus [5] = test: Antithrombotic activity in thromboplastin and stasis-induced Sprague-Dawley rat deep venous thrombosis model assessed as reduction in venous thrombosis by measuring activity potency of oligosaccharides multiplied by the percentage of oligosaccharides in dHG-5 at 1.84 mg/kg, sc administered 1 hr prior to thromboplastin addition for 20 secs followed by establishment of stasis for 20 mins relative to dHG-5; type: functional; settings: time 80.33 min, 1.339 h
[6] = biological target: T2, Coagulation factor IX/VIII (Homo sapiens); test: Inhibition of human citrated plasma iXase (factor 8a-factor 9a complex) preincubated for 2 mins followed by factor 10 addition and measured after 1 min by FXa chromogenic substrate SXa-11 based assay relative to dHG-5; type: protein-complex assay; settings: time 3.0 min
Plasma [7] = test: Anticoagulation activity in human plasma assessed as drug level causing 20 times doubling of APTT preincubated for 2 mins followed by APTT reagent and measured after 3 mins by coagulometric method relative to dHG-5; type: functional; settings: time 5 min
Rattus norvegicus [8] = test: Antithrombotic activity in thromboplastin and stasis-induced Sprague-Dawley rat deep venous thrombosis model assessed as reduction in venous thrombosis at 1.84 mg/kg, sc administered 1 hr prior to thromboplastin addition for 20 secs followed by establishment of stasis for 20 mins relative to dHG-5; type: functional; settings: time 80.33 min, 1.339 h
Coagulation factor IX [9] = biological target: T3, Coagulation factor IX (Homo sapiens, UniProt P00740); test: Inhibition of factor 9a (unknown origin) binding to immobilized biotinylated oHG-11 assessed as activity potency of oligosaccharides multiplied by the percentage of oligosaccharides in dHG-5 by biolayer interferometry relative to dHG-5
[10] = biological target: T4, Coagulation factor XII (Homo sapiens) (UniProt P00748); test: Inhibition of factor 12a (unknown origin) at IC50 using kallikrein chromogenic substrate preincubated for 1 min followed by chromogenic substrate addition and measured for 2 mins in presence of AT-III; settings: time 3.0 min
T4 sequence (whole entry): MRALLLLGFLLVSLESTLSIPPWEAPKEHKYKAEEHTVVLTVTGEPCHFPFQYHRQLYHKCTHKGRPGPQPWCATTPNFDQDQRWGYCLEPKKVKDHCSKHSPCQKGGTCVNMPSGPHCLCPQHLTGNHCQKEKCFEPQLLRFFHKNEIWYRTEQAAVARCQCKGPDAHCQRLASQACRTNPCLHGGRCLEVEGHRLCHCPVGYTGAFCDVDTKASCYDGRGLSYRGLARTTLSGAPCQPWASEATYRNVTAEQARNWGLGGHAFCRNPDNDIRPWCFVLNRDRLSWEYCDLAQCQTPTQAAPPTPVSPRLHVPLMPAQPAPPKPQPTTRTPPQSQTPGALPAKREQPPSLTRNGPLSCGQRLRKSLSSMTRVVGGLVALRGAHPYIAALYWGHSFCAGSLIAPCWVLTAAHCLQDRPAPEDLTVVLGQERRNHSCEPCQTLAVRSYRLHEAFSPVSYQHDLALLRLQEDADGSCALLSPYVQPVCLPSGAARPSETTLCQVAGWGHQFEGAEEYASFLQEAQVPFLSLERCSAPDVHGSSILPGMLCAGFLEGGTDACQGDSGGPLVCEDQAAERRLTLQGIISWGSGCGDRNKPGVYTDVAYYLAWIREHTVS

[11] = biological target: Prothrombin (Homo sapiens) (UniProt P00734); test: Inhibition of factor 2a (unknown origin) at IC50 preincubated for 1 min followed by chromogenic substrate addition and measured for 2 mins; settings: time 3.0 min
[12] = biological target: Coagulation factor X (Homo sapiens) (UniProt P00742); test: Inhibition of factor 10a (unknown origin) at IC90 preincubated for 1 min followed by chromogenic substrate addition and measured for 2 mins in presence of AT-III relative to control; settings: time 3.0 min
[13] = biological target: T4, Coagulation factor XII (Homo sapiens); test: Inhibition of factor 12a (unknown origin) at IC50 using kallikrein chromogenic substrate preincubated for 1 min followed by chromogenic substrate addition and measured for 2 mins; settings: time 3.0 min
[14] = biological target: Coagulation factor XI (Homo sapiens) (UniProt P03951); test: Inhibition of factor 11a (unknown origin) at IC90 using S-2366 as substrate preincubated for 1 min followed by chromogenic substrate addition and measured for 2 mins in presence of AT-III; settings: time 3.0 min
[15] = biological target: Coagulation factor X (Homo sapiens) (UniProt P00742); test: Inhibition of factor 10a (unknown origin) at IC50 preincubated for 1 min followed by chromogenic substrate addition and measured for 2 mins in presence of AT-III; settings: time 3.0 min
Coagulation factor IX [16] = biological target: T3, Coagulation factor IX; test: Inhibition of factor 9a (unknown origin) binding to immobilized biotinylated oHG-11 by biolayer interferometry relative to dHG-5
[17] = biological target: Prothrombin (Homo sapiens) (UniProt P00734); test: Inhibition of factor 2a (unknown origin) at IC90 preincubated for 1 min followed by chromogenic substrate addition and measured for 2 mins in presence of AT-III; settings: time 3.0 min
[18] = biological target: Coagulation factor X (Homo sapiens) (UniProt P00742); test: Inhibition of factor 10a (unknown origin) at IC50 preincubated for 1 min followed by chromogenic substrate addition and measured for 2 mins; settings: time 3.0 min
[19] = biological target: Prothrombin (Homo sapiens) (UniProt P00734); test: Inhibition of factor 2a (unknown origin) at IC50 preincubated for 1 min followed by chromogenic substrate addition and measured for 2 mins in presence of AT-III; settings: time 3.0 min
[20] = biological target: T1, Coagulation factor VII (Homo sapiens); test: Inhibition of factor 7a (unknown origin) at IC50 using pefachrome factor VIIa as substrate preincubated for 1 min followed by chromogenic substrate addition and measured for 2 mins; settings: time 3.0 min
[21] = biological target: Coagulation factor XI (Homo sapiens) (UniProt P03951); test: Inhibition of factor 11a (unknown origin) at IC50 using S-2366 as substrate preincubated for 1 min followed by chromogenic substrate addition and measured for 2 mins in presence of AT-III; settings: time 3.0 min

Sequence of Coagulation factor X (Homo sapiens) (P00742 41-179 limits assumed): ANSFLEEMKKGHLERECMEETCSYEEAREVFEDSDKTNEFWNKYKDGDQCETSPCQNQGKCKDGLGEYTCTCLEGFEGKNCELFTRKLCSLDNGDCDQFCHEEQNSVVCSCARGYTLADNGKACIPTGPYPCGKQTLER
Sequence of Coagulation factor X (Homo sapiens) (P00742 235-488 limits assumed): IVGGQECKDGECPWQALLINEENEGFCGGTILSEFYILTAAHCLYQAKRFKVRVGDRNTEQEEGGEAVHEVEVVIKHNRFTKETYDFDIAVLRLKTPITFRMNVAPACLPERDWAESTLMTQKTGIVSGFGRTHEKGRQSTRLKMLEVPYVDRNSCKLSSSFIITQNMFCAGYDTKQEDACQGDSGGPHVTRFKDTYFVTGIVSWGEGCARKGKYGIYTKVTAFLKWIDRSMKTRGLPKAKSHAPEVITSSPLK
Sequence of Coagulation factor XI (Homo sapiens) (P03951 19-387 limits assumed): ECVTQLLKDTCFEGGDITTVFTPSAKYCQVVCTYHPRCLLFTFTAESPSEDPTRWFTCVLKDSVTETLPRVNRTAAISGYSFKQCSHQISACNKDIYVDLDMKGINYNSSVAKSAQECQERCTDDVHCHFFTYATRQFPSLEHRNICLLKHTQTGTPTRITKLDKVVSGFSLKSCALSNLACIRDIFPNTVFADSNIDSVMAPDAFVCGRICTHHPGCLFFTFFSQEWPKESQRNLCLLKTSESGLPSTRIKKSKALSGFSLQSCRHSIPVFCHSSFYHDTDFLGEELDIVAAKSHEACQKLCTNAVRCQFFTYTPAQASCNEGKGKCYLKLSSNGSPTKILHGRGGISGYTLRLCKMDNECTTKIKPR
Sequence of Coagulation factor XI (Homo sapiens) (P03951 388-625 limits assumed): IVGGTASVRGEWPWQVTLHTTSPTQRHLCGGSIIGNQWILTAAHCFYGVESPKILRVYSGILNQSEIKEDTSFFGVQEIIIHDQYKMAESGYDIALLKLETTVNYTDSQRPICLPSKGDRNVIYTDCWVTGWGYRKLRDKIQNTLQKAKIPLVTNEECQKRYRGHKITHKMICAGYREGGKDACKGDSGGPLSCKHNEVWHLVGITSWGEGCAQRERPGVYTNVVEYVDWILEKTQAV
T3 sequence (P00740 47-191 limits assumed): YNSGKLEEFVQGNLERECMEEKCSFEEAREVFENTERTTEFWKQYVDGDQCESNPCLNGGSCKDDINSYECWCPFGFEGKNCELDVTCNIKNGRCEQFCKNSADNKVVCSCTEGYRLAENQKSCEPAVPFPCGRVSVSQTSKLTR
T3 sequence (P00740 227-461 limits assumed): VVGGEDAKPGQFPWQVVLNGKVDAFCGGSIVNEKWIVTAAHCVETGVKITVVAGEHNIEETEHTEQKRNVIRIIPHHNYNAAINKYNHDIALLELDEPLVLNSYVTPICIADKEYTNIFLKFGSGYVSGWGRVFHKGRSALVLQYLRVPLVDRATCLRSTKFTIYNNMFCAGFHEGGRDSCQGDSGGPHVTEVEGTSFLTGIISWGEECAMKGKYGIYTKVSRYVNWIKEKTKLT

- inhibition [1]: inactive
- inhibition [2]: inactive
- Ratio [3]: 24.4 U
- Ratio [6]: 217 U
- Ratio (Coagulation factor IX [9]): 13.1 U
- inhibition [10]: inactive
- inhibition [11]: inactive
- inhibition [12]: inactive
- inhibition [13]: inactive
- inhibition [14]: Active
- inhibition [15]: inactive
- Ratio (Coagulation factor IX [16]): 116 U
- inhibition [17]: Active
- inhibition [18]: inactive
- inhibition [19]: inactive
- inhibition (active/not active) [20]: inactive
- inhibition [21]: inactive
Structure (SMILES): CC(=O)N[C@H]1[C@H](O[C@@H]([C@H](O[C@@H]2O[C@@H](C)[C@@H](OS(=O)(=O)[O-])[C@@H](OS(=O)(=O)O)[C@@H]2O)[C@@H](O)CO)[C@H](O)C(=O)[O-])O[C@H](COS(=O)(=O)[O-])[C@H](OS(=O)(=O)[O-])[C@@H]1O[C@@H]1O[C@H](C(=O)[O-])[C@@H](O[C@@H]2O[C@H](COS(=O)(=O)[O-])[C@H](OS(=O)(=O)[O-])[C@H](O[C@@H]3O[C@H](C(=O)[O-])[C@@H](O[C@@H]4O[C@H](COS(=O)(=O)[O-])[C@H](OS(=O)(=O)[O-])[C@H](O[C@@H]5O[C@H](C(=O)[O-])[C@@H](O[C@@H]6O[C@H](COS(=O)(=O)[O-])[C@H](OS(=O)(=O)[O-])[C@H](O[C@@H]7O[C@H](C(=O)[O-])[C@@H](O[C@@H]8O[C@H](COS(=O)(=O)[O-])[C@H](OS(=O)(=O)[O-])[C@H](O[C@@H]9O[C@H](C(=O)[O-])[C@@H](O[C@@H]%10O[C@H](COS(=O)(=O)[O-])[C@H](OS(=O)(=O)[O-])[C@H](O[C@@H]%11OC(C(=O)[O-])=C[C@H](O[C@@H]%12O[C@@H](C)[C@@H](OS(=O)(=O)[O-])[C@@H](OS(=O)(=O)O)[C@@H]%12O)[C@H]%11O)[C@H]%10NC(C)=O)[C@H](O[C@@H]%10O[C@@H](C)[C@@H](OS(=O)(=O)[O-])[C@@H](OS(=O)(=O)O)[C@@H]%10O)[C@H]9O)[C@H]8NC(C)=O)[C@H](O[C@@H]8O[C@@H](C)[C@@H](OS(=O)(=O)[O-])[C@@H](OS(=O)(=O)O)[C@@H]8O)[C@H]7O)[C@H]6NC(C)=O)[C@H](O[C@@H]6O[C@@H](C)[C@@H](OS(=O)(=O)[O-])[C@@H](OS(=O)(=O)O)[C@@H]6O)[C@H]5O)[C@H]4NC(C)=O)[C@H](O[C@@H]4O[C@@H](C)[C@@H](OS(=O)(=O)[O-])[C@@H](OS(=O)(=O)O)[C@@H]4O)[C@H]3O)[C@H]2NC(C)=O)[C@H](O[C@@H]2O[C@@H](C)[C@@H](OS(=O)(=O)[O-])[C@@H](OS(=O)(=O)O)[C@@H]2O)[C@H]1O.[Na+].[Na+].[Na+].[Na+].[Na+].[Na+].[Na+].[Na+].[Na+].[Na+].[Na+].[Na+].[Na+].[Na+].[Na+].[Na+].[Na+].[Na+].[Na+].[Na+].[Na+].[Na+].[Na+].[Na+].[Na+].[Na+]
- Ratio (Plasma [4]): 22.82 U
- Ratio (Rattus norvegicus [5]): 23.93 U
- Ratio (Plasma [7]): 203.41 U
- Ratio (Rattus norvegicus [8]): 213.7 U
